According to article PMC5428333, “Novel protein acetyltransferase, Rv2170, modulates carbon and energy metabolism in Mycobacterium tuberculosis” (Scientific Reports, 2017):

Key:
Rv2170 [1] = target: T1, Rv2170 (Mycobacterium tuberculosis, UniProt O53504)
Rv2170 [2] = target: T1, Rv2170; remark: listed apart in the source

T1 sequence (O53504 whole entry): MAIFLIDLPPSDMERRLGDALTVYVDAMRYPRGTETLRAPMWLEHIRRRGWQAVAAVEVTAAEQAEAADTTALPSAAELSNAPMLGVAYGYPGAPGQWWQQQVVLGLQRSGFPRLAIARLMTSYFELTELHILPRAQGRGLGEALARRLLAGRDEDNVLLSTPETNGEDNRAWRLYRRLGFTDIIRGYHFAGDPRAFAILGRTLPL

Row | Structure (SMILES) | DTNB assay of free CoA at 412 nm; also 14C transfer to ICDH1 by SDS-PAGE and pho (Rv2170 [1]) | 14C transfer to ICDH1, SDS-PAGE and phosphorimaging (Rv2170 [2])
1 | CC(=O)SCCNC(=O)CCNC(=O)[C@H](O)C(C)(C)COP(=O)(O)OP(=O)(O)OC[C@H]1O[C@@H](n2cnc3c(N)ncnc32)[C@H](O)[C@@H]1OP(=O)(O)O [acetyl-CoA] | sigmoidal response in kinetic analysis of Rv2170 when the concentration of acetyl-CoA was increased | –
2 | CCC(=O)SCCNC(=O)CCNC(=O)[C@H](O)C(C)(C)COP(=O)(O)OP(=O)(O)OC[C@H]1O[C@@H](n2cnc3c(N)ncnc32)[C@H](O)[C@@H]1OP(=O)(O)O [propionyl-CoA] | – | Rv2170 is also capable of modifying ICDH1 with the succinyl-CoA and propionyl-CoA donors
